Results published in PubChem BioAssay (NCI).
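Dose response: 5 concentrations. Exposure: 48 h. Format: 96-well plates. Endpoint: linear interpolation; highest concentration if not reached. GI50: concentration for 50% inhibition of growth. TGI: concentration producing complete growth inhibition.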

Legend:
Assay in all cases: NCI anticancer screen, dose series, 48 h
[1] = system: T-47D breast
[2] = system: MDA-MB-231 breast
[3] = system: SF-295 CNS
[4] = system: OVCAR-3 ovarian
[5] = system: OVCAR-8 ovarian
[6] = system: SK-MEL-5 melanoma
[7] = system: TK-10 renal
[8] = system: SNB-19 CNS
[9] = system: BT-549 breast
[10] = system: 786-0 renal
[11] = system: NCI-H23 lung
[12] = system: HCT-116 colon
[13] = system: COLO 205 colon
[14] = system: SF-268 CNS
[15] = system: HCT-15 colon
[16] = system: RPMI-8226 leukemia
[17] = system: MDA-MB-435
[18] = system: PC-3 prostate
[19] = system: HOP-92 NSCLC
[20] = system: NCI-H460 lung
[21] = system: OVCAR-4 ovarian
[22] = system: UACC-257 melanoma
[23] = system: CAKI-1 renal
[24] = system: HCC-2998 colon
[25] = system: SNB-75 CNS
[26] = system: U251 CNS
[27] = system: ACHN renal
[28] = system: KM12 colon
[29] = system: UACC-62 melanoma
[30] = system: EKVX NSCLC
[31] = system: A549 NSCLC
[32] = system: LOX IMVI melanoma
[33] = system: DU-145 prostate
[34] = system: M14 melanoma
[35] = system: CCRF-CEM leukemia
[36] = system: OVCAR-5 ovarian
[37] = system: A498 renal
[38] = system: HOP-62 NSCLC
[39] = system: UO-31 renal
[40] = system: MCF7 breast
[41] = system: SK-MEL-28 melanoma
[42] = system: RXF 393 renal
[43] = system: SW-620 colon
[44] = system: SK-MEL-2 melanoma
[45] = system: NCI/ADR-RES ovarian
[46] = system: SK-OV-3 ovarian
[47] = system: SN12C renal
[48] = system: HL-60(TB) leukemia
[49] = system: IGROV1 ovarian
[50] = system: SR leukemia
[51] = system: NCI-H226 lung
[52] = system: NCI-H522 lung
[53] = system: K-562 leukemia
[54] = system: SF-539 CNS
[55] = system: HT29 colon
[56] = system: MOLT-4 leukemia

Cc1cc(C)c(C#N)c(SC(=S)NC(=O)c2ccc(Cl)cc2)n1 was tested, and the TGI [1] was > 100 µM, the TGI [2] was > 100 µM and the TGI [3] was > 100 µM. For the same molecule, the TGI [4] was > 100 µM, the TGI [5] was > 100 µM and the TGI [6] was > 100 µM. For the same molecule, the TGI [7] was > 100 µM, the TGI [8] was > 100 µM and the TGI [9] was > 100 µM. The TGI [10] was > 100 µM, the TGI [11] was > 100 µM and the TGI [12] was > 100 µM. The TGI [13] was > 100 µM, the TGI [14] was > 100 µM and the TGI [15] was > 100 µM. The TGI [16] was > 100 µM, the TGI [17] was > 100 µM and the TGI [18] was > 100 µM. For the same molecule, the TGI [19] was > 100 µM, the TGI [20] was > 100 µM and the TGI [21] was > 100 µM. The TGI [22] was > 100 µM, the TGI [23] was > 100 µM and the TGI [24] was > 100 µM. The TGI [25] was > 100 µM, the TGI [26] was > 100 µM and the TGI [27] was > 100 µM. The TGI [28] was > 100 µM, the TGI [29] was > 100 µM and the TGI [30] was > 100 µM. For the same molecule, the TGI [31] was > 100 µM, the TGI [32] was > 100 µM and the TGI [33] was > 100 µM. The TGI [34] was > 100 µM, the TGI [35] was > 100 µM and the TGI [36] was > 100 µM. The TGI [37] was > 100 µM, the TGI [38] was > 100 µM and the TGI [39] was > 100 µM. For the same molecule, the TGI [40] was > 100 µM, the TGI [41] was > 100 µM and the TGI [42] was > 100 µM. For the same molecule, the TGI [43] was > 100 µM, the TGI [44] was > 100 µM and the TGI [45] was > 100 µM. The TGI [46] was > 100 µM.

With Cc1c(C(N)=O)sc2c1c(=O)n(Cc1ccccc1)c1nnc(SCC(=O)Nc3ccc(Cl)cc3)n21 the GI50 [1] was 3.52 µM, the TGI [1] was 15.1 µM and the GI50 [47] was > 100 µM. For the same molecule, the TGI [47] was > 100 µM, the GI50 [2] was 3.81 µM and the TGI [2] was 19.4 µM. It also gave a GI50 [3] of 4.71 µM, a TGI [3] of 73.8 µM and a GI50 [5] of 4.03 µM. The TGI [5] was > 100 µM, the GI50 [6] was 4.89 µM and the TGI [6] was 24 µM. The GI50 [8] was 63.5 µM, the TGI [8] was > 100 µM and the GI50 [9] was 3.65 µM. The TGI [9] was > 100 µM, the GI50 [10] was 2.46 µM and the TGI [10] was 7.78 µM. For the same molecule, the GI50 [11] was 2.78 µM, the TGI [11] was 10.7 µM and the GI50 [48] was > 100 µM. For the same molecule, the TGI [48] was > 100 µM, the GI50 [12] was 1.95 µM and the TGI [12] was 4.85 µM. The GI50 [13] was 6.99 µM, the TGI [13] was > 100 µM and the GI50 [14] was 8.05 µM. The TGI [14] was > 100 µM, the GI50 [15] was > 100 µM and the TGI [15] was > 100 µM. The GI50 [49] was 28 µM, the TGI [49] was > 100 µM and the GI50 [50] was 3.19 µM. For the same molecule, the TGI [50] was 14 µM, the GI50 [17] was > 100 µM and the TGI [17] was > 100 µM. It also gave a GI50 [51] of 5.8 µM, a TGI [51] of 46.2 µM and a GI50 [18] of 3.3 µM. The TGI [18] was > 100 µM, the GI50 [52] was 4.12 µM and the TGI [52] was > 100 µM. For the same molecule, the GI50 [53] was 12.6 µM, the TGI [53] was > 100 µM and the GI50 [20] was 3.28 µM. For the same molecule, the TGI [20] was > 100 µM, the GI50 [22] was 3.44 µM and the TGI [22] was > 100 µM. For the same molecule, the GI50 [23] was > 100 µM, the TGI [23] was > 100 µM and the GI50 [24] was 5.56 µM. For the same molecule, the TGI [24] was > 100 µM, the GI50 [26] was 4.14 µM and the TGI [26] was 19.5 µM. The GI50 [27] was > 100 µM, the TGI [27] was > 100 µM and the GI50 [54] was 2.53 µM. The TGI [54] was 6.33 µM, the GI50 [28] was 15.5 µM and the TGI [28] was > 100 µM. For the same molecule, the GI50 [29] was 9.26 µM, the TGI [29] was > 100 µM and the GI50 [30] was 18.1 µM. For the same molecule, the TGI [30] was > 100 µM, the GI50 [32] was 5.45 µM and the TGI [32] was > 100 µM. For the same molecule, the GI50 [33] was > 100 µM, the TGI [33] was > 100 µM and the GI50 [34] was 4.63 µM. For the same molecule, the TGI [34] was > 100 µM, the GI50 [35] was 25.1 µM and the TGI [35] was > 100 µM. For the same molecule, the GI50 [36] was > 100 µM, the TGI [36] was > 100 µM and the GI50 [37] was 2.51 µM. The TGI [37] was > 100 µM, the GI50 [38] was 3.71 µM and the TGI [38] was 15.5 µM. For the same molecule, the GI50 [39] was > 100 µM, the TGI [39] was > 100 µM and the GI50 [40] was 6.61 µM. The TGI [40] was > 100 µM, the GI50 [55] was > 100 µM and the TGI [55] was > 100 µM. For the same molecule, the GI50 [56] was > 100 µM, the TGI [56] was > 100 µM and the GI50 [43] was > 100 µM. For the same molecule, the TGI [43] was > 100 µM, the GI50 [44] was > 100 µM and the TGI [44] was > 100 µM. The GI50 [45] was > 100 µM, the TGI [45] was > 100 µM and the GI50 [46] was 3.37 µM. For the same molecule, the TGI [46] was > 100 µM.

Cc1ccc(C2c3c(n(C)c(=O)n(C)c3=O)OC(N(C)C)(N(C)C)C2(F)F)cc1 (stereo not drawn) was tested, and the TGI [1] was > 100 µM, the TGI [2] was > 100 µM and the TGI [3] was > 100 µM. For the same molecule, the TGI [4] was > 100 µM, the TGI [6] was > 100 µM and the TGI [7] was > 100 µM. For the same molecule, the TGI [8] was > 100 µM, the TGI [9] was > 100 µM and the TGI [10] was > 100 µM. The TGI [11] was > 100 µM, the TGI [12] was > 100 µM and the TGI [13] was > 100 µM. For the same molecule, the TGI [14] was > 100 µM, the TGI [15] was > 100 µM and the TGI [16] was > 100 µM. The TGI [17] was > 100 µM, the TGI [51] was > 100 µM and the TGI [18] was > 100 µM. The TGI [19] was > 100 µM, the TGI [53] was > 100 µM and the TGI [20] was > 100 µM. For the same molecule, the TGI [21] was > 100 µM, the TGI [22] was > 100 µM and the TGI [23] was > 100 µM. The TGI [24] was > 100 µM, the TGI [25] was > 100 µM and the TGI [26] was > 100 µM. For the same molecule, the TGI [27] was > 100 µM, the TGI [28] was > 100 µM and the TGI [29] was > 100 µM. The TGI [30] was > 100 µM, the TGI [31] was > 100 µM and the TGI [32] was > 100 µM. The TGI [33] was > 100 µM, the TGI [34] was > 100 µM and the TGI [35] was > 100 µM. The TGI [36] was > 100 µM, the TGI [37] was > 100 µM and the TGI [38] was > 100 µM. The TGI [39] was > 100 µM, the TGI [40] was > 100 µM and the TGI [41] was > 100 µM. The TGI [42] was > 100 µM, the TGI [56] was > 100 µM and the TGI [43] was > 100 µM. The TGI [44] was > 100 µM, the TGI [45] was > 100 µM and the TGI [46] was > 100 µM.
